Assay results taken from patent publication US20090227619A1, “Harmine derivatives, intermediates used in their preparations, preparation processes and use therefo” (priority 2003, published 2009).
Several values for one entry are separate records, joined by “and”; a condition that tells them apart may be missing. Equal entries are not always repeated. Where two headings read alike, the source gives them in different places.

Key:
Hela = test: In vitro cytotoxicity, IC50 by MTT method, Hela; assay type: cell-based; settings: Homo sapiens
Method: (§1) Culture medium powder RPMI1640 was dissolved in a proper amount of tri-distilled water according to the instruction of the product. […] It was the basic culture solution. The complete culture solution was added with FBS having a final concentration of 10%, 100 U/ml penicillin and 100 µg/ml streptomycin. The solution was fully stirred by a magnetic blender, and the pH of the solution was adjusted to 6.8-7.0. The volume was kept constant. After being filtered and disinfected, the solution was kept into several containers which were sealed and stored at 4° C.
(§2) The cells were placed in a culture dish followed by the addition of complete culture liquid RPMI1640 and then cultured in a incubator comprising 5% CO2 at 37° C. In the exponential growth phase, the cells grew vigorously. If the culture liquid became yellow, the liquid should be replaced instantly.
(§3) The cells, at a concentration of 10^5/ml, were inoculated at a 96-pore culture plate. In each pore, 100 μl cells were inoculated. The cells were placed in a CO2 incubator until the cells were in the logarithmic growth phase. The samples to be tested were added according to the preset concentration gradient. For each gradient, the test was conducted at least three times. An equivalent amount of solvent for dissolving the samples was added in the control group. After 48 h of culture, each pore was added 20 μl MTT (5 mg/ml). The cells were cultured at 37° C. for 4 h. After the supernatant was carefully removed, 100 μl DMSO was added in each pore. The plate was agitated for about 10 minutes such that the precipitates were dissolved. After that, OD value was identified with a Microplate Reader at the wavelength of 490 nm. The survival rate of the cells at various concentrations was calculated according to the following formula:
(§4) Survival rate %=average OD value of the sample group/average OD value of the control group×100%
(§5) Plots of log survival rate of the cells vs. concentration of the medicament were constructed, and the IC50 value of each sample was calculated according to graphing methods.

Lovo = test: In vitro cytotoxicity, IC50 by MTT method, Lovo; assay type: cell-based; settings: Homo sapiens
Method: as §1, §2, §3, §4, §5

NIH3T3 = test: In vitro cytotoxicity, IC50 by MTT method, NIH3T3; assay type: cell-based; settings: Mus musculus
Method: as §1, §2, §3, §4, §5

PLA-801 = test: In vitro cytotoxicity, IC50 by MTT method, PLA-801; assay type: cell-based
Method: as §1, §2, §3, §4, §5

HepG2 = test: In vitro cytotoxicity, IC50 by MTT method, HepG2; assay type: cell-based, human; settings: Homo sapiens
Method: as §1, §2, §3, §4, §5

BGC-823 = test: In vitro cytotoxicity, IC50 by MTT method, BGC-823; assay type: cell-based; settings: Homo sapiens, BGC-823
Method: as §1, §2, §3, §4, §5

Bel-7402 = test: In vitro cytotoxicity, IC50 by MTT method, Bel-7402; assay type: cell-based; settings: Homo sapiens, Bel-7402
Method: as §1, §2, §3, §4, §5

[1] = Hela cell strain, read-out: IC50 Hela
[2] = Lovo cell strain, read-out: IC50 Lovo
[3] = NIH3T3 cell strain, read-out: IC50 NIH3T3
[4] = PLA-801 cell strain, read-out: IC50 PLA-801
[5] = HepG2 cell strain, read-out: IC50 HepG2
[6] = BGC823 cell strain, read-out: IC50 BGC823
[7] = Bel7402 cell strain, read-out: IC50 Bel7402

Structure (SMILES) | IC50 (Hela; Hela, MTT, read-out: IC50) | IC50 (Lovo; Lovo, MTT, read-out: IC50) | melting point | IC50 (NIH3T3; NIH3T3, MTT, read-out: IC50) | IC50 (PLA-801; PLA-801, MTT, read-out: IC50) | IC50 (HepG2; HepG2, MTT, read-out: IC50) | IC50 (BGC-823; BGC823, MTT, read-out: IC50) | IC50 (Bel-7402; BeI7402, MTT, read-out: IC50) | IC50 (Hela; [1]) | IC50 (Lovo; [2]) | IC50 (NIH3T3; [3]) | IC50 (PLA-801; [4]) | IC50 (HepG2; [5]) | IC50 (BGC-823; [6]) | IC50 (Bel-7402; [7])
CCNC1(C(N)=O)C=C2C(=Nc3ccccc32)C=N1 (stereo not drawn) [Compound 19, 3-ethylamino-β-carboline-3-formamide] | 90 µM | 100 µM | 233 to 236 °C | 200 µM | 140 µM | 80 µM | 80 µM | 160 µM | – | – | – | – | – | – | –
COC(=O)Nc1cc2c(cn1)[nH]c1ccccc12 [Compound 22, 3-[(methoxycarbonyl)amino]-β-carboline] | 170 µM | 160 µM | 180 to 182 °C | 320 µM | 200 µM | 230 µM | 210 µM | 130 µM | – | – | – | – | – | – | –
CCOC(=O)Nc1cc2c(cn1)[nH]c1ccccc12 [Compound 23, 3-[(ethoxycarbonyl)amino]-β-carboline] | > 3000 µM | > 3000 µM | 221 to 223 °C | > 3000 µM | 2160 µM | > 3000 µM | > 3000 µM | > 3000 µM | – | – | – | – | – | – | –
OCc1cc2c(cn1)[nH]c1ccccc12 [Compound 24, 3-hydroxymethyl-β-carboline] | 620 µM | 490 µM | 226 to 228 °C | 360 µM | 1080 µM | 580 µM | 780 µM | 740 µM | – | – | – | – | – | – | –
CC(=O)COc1cc2c(cn1)[nH]c1ccccc12 [Compound 25, 3-acetylmethoxy-β-carboline] | 780 µM | 250 µM | 131 to 132 °C | 310 µM | 780 µM | 1130 µM | 640 µM | 590 µM | – | – | – | – | – | – | –
CCCCn1c2ccccc2c2cc(C(=O)OC)ncc21 [Compound 28, methyl 9-n-butyl-β-carboline-3-carboxylate] | – | – | 181 to 183 °C | – | – | – | – | – | 290 µM | 170 µM | 80 µM | 140 µM | 460 µM | 310 µM | 430 µM
COC(=O)c1cc2c3ccccc3n(Cc3ccccc3)c2cn1 [Compound 29, methyl 9-benzyl-β-carboline-3-carboxylate] | – | – | 187 to 188 °C | – | – | – | – | – | 120 µM | 310 µM | 360 µM | 480 µM | 1770 µM | 950 µM | 60 µM
CCOC(=O)c1cc2c3ccccc3n(C)c2cn1 [Compound 30, ethyl 9-methyl-β-carboline-3-carboxylate] | – | – | 139 to 140 °C | – | – | – | – | – | 180 µM | 100 µM | 100 µM | 120 µM | 150 µM | 150 µM | 140 µM
CCCCn1c2ccccc2c2cc(C(=O)OCC)ncc21 [Compound 32, ethyl 9-butyl-β-carboline-3-carboxylate] | – | – | 76 to 77 °C | – | – | – | – | – | 490 µM | 170 µM | 60 µM | 70 µM | 480 µM | 760 µM | 780 µM
Cn1c2ccccc2c2cc(C(=O)O)ncc21 [Compound 34, 9-methyl-β-carboline-3-carboxylic acid] | – | – | 267 to 269 °C | – | – | – | – | – | 90 µM | 90 µM | 130 µM | 270 µM | 150 µM | 130 µM | 330 µM
CCn1c2ccccc2c2cc(C(=O)O)ncc21 [Compound 35, 9-ethyl-β-carboline-3-carboxylic acid] | – | – | 201 to 202 °C | – | – | – | – | – | 180 µM | 60 µM | 140 µM | 210 µM | 180 µM | 160 µM | 230 µM
CCCCOC(=O)c1cc2c3ccccc3n(C)c2cn1 [Compound 38, butyl 9-methyl-β-carboline-3-carboxylate] | – | – | 235 to 238 °C | – | – | – | – | – | > 3000 µM | 2520 µM | > 3000 µM | > 3000 µM | 1610 µM | > 3000 µM | > 3000 µM
CCCCOC(=O)c1cc2c3ccccc3n(CCCC)c2cn1 [Compound 40, butyl 9-butyl-β-carboline-3-carboxylate] | – | – | 94 to 95 °C | – | – | – | – | – | 950 µM | 40 µM | 50 µM | 2120 µM | 1080 µM | 70 µM | 1080 µM
CCCCOC(=O)c1cc2c3ccccc3n(Cc3ccccc3)c2cn1 [Compound 41, butyl 9-benzyl-β-carboline-3-carboxylate] | – | – | 105 to 106 °C and 104 to 105 °C | – | – | – | – | – | > 3000 µM | 1080 µM | > 3000 µM | 990 µM | > 3000 µM | > 3000 µM | > 3000 µM
O=C(OCc1ccccc1)c1cc2c3ccccc3n(Cc3ccccc3)c2cn1 [Compound 44, benzyl 9-benzyl-β-carboline-3-carboxylate] | – | – | 169 to 170 °C | – | – | – | – | – | > 3000 µM | > 3000 µM | > 3000 µM | > 3000 µM | > 3000 µM | > 3000 µM | > 3000 µM
CCOC(=O)c1cc2c3ccccc3n(CCCc3ccccc3)c2cn1 [Compound 45, ethyl 9-phenylpropyl-β-carboline-3-carboxylate] | – | – | 140 to 142 °C | – | – | – | – | – | > 3000 µM | > 3000 µM | > 3000 µM | > 3000 µM | > 3000 µM | > 3000 µM | 387 µM
CCn1c2ccccc2c2cc(NC(=O)OC)ncc21 [Compound 53, 9-ethyl-3-[(methoxycarbonyl)amino]-β-carboline] | – | – | 213 to 214 °C | – | – | – | – | – | > 3000 µM | > 3000 µM | > 3000 µM | > 3000 µM | > 3000 µM | > 3000 µM | > 3000 µM
CCOC(=O)Nc1cc2c3ccccc3n(CC)c2cn1 [Compound 54, 3-[(ethoxycarbonyl)amino]-9-ethyl-β-carboline] | – | – | 217 to 218 °C | – | – | – | – | – | > 3000 µM | > 3000 µM | > 3000 µM | > 3000 µM | > 3000 µM | > 3000 µM | 1680 µM
CCOC(=O)c1cc2c3ccccc3n(C)c2c(C)n1 [Compound 56, ethyl 1,9-dimethyl-β-carboline-3-carboxylate] | – | – | 141 to 142 °C | – | – | – | – | – | 110 µM | 50 µM | 60 µM | 140 µM | 100 µM | 130 µM | 490 µM
CCOC(=O)c1cc2c3ccccc3n(CC)c2c(C)n1 [Compound 57, ethyl 9-ethyl-1-methyl-β-carboline-3-carboxylate] | – | – | 96 to 98 °C | – | – | – | – | – | 60 µM | 50 µM | 60 µM | 160 µM | 80 µM | 70 µM | 880 µM
CCOC(=O)c1cc2c3ccccc3n(Cc3ccccc3)c2c(C)n1 [Compound 58, ethyl 9-benzyl-1-methyl-β-carboline-3-carboxylate] | – | – | 155 to 156 °C | – | – | – | – | – | 250 µM | 170 µM | 1820 µM | 1390 µM | 2000 µM | 2080 µM | 210 µM
CCOC(=O)c1cc2c3ccccc3n(CCCc3ccccc3)c2c(C)n1 [Compound 59, ethyl 9-phenylpropyl-1-methyl-β-carboline-3-carboxylate] | – | – | 101 to 102 °C | – | – | – | – | – | 40 µM | 20 µM | 30 µM | 110 µM | 40 µM | 40 µM | 180 µM
